Assay results taken from ChEMBL document CHEMBL4177528, “Recent developments in drug discovery against the protozoal parasites Cryptosporidium and Toxoplasma” (Bioorg Med Chem Lett, 2017).

What was measured:
Toxoplasma gondii [1] = experiment: Antiparasitic activity against Toxoplasma gondii after 4 days by chlorophenol red-beta-D-galactosidase based assay; type: functional, organism-based; conditions: 96 h
Cryptosporidium parvum = experiment: Antiparasitic activity against Cryptosporidium parvum infected in human HCT8 cells incubated for 24 hrs post 3 hrs infection by Hoechst 33258 staining based epifluorescence microscopy; type: functional
Toxoplasma gondii [2] = experiment: Antiparasitic activity against tachyzoite stage of Toxoplasma gondii RH infected in Swiss Webster mouse assessed as mouse survival for 60 days post infection; type: functional
Toxoplasma gondii [3] = experiment: Antiparasitic activity against Toxoplasma gondii assessed as population with apicoplast loss after 4 days by Hoechst staining based microscopy; type: functional
Toxoplasma gondii [4] = experiment: Antiparasitic activity against tachyzoite stage of Toxoplasma gondii infected in LLC-MK2 cells after 6 hrs; type: functional

SMILES | IC50 (Toxoplasma gondii [1]) | Survival (Toxoplasma gondii [2]) | also measured
O=[N+]([O-])c1cccc2ncccc12 | 5 to 6 µM | – | –
Cc1cccc(-n2ncc3c(O)nc(-n4nc(C)cc4NC(=O)c4cc5ccccc5o4)nc32)c1 | – | – | Activity (Cryptosporidium parvum): 0.12 µM
Clc1ccc2ccccc2n1 | 5 to 6 µM | – | –
CCOC(=O)c1cn(C2CC2)c2cc(N3CCN(Cc4ccccc4)CC3)c(F)cc2c1=O | – | 13 - 25% | –
[O-][n+]1cccc2ccccc21 | 5 to 6 µM | – | –
FC(F)(F)c1ccc2c(NCCCN3CCN(c4cccc5nc(Cl)ccc45)CC3)ccnc2c1 | 0.425 µM | – | Activity (Toxoplasma gondii [3]): 40 - 45%
O=C(O)c1cn(C2CC2)c2cc(N3CCN(CC45CC6CC(CC(C6)C4)C5)CC3)c(F)cc2c1=O | – | 13 - 25% | –
COc1cccc(C(=O)NC(c2ccc(C)cc2)c2cc(Cl)c3cccnc3c2O)c1 (centres undefined) | – | – | Activity (Cryptosporidium parvum): 0.054 µM
O=C1C2=C(C(=O)c3ccccc31)[C@H]1Oc3ccc(Br)cc3[C@H]1CO2 | – | – | Activity (Toxoplasma gondii [4]): <1 µM
CCOC(=O)c1cn(C2CC2)c2cc(N3CCNCC3)c(F)cc2c1=O [CIPROFLOXACIN ETHYL ESTER] | – | 13 - 25% | –
O=C(O)c1cn(C2CC2)c2cc(N3CCNCC3)c(F)cc2c1=O [CIPROFLOXACIN] | – | 13 - 25% | –
Oc1cccc2cccnc12 [OXYQUINOLINE] | 0.213 µM | – | –
c1ccc2ncccc2c1 [QUINOLINE] | 5 to 6 µM | – | –
